Converted amounts (≈) assume the structure as drawn.
Experiments:
[1] = test system: Candida albicans ATCC 10231; experiment: Antimicrobial assay I, modified protocol (tryptic soy broth), MFC; conditions: minimum fungicidal concentration, Table 4
[2] = test system: Stapholococcus aureus ATCC 25923; experiment: Antimicrobial assay I, modified protocol (tryptic soy broth), MBC; conditions: minimum bactericidal concentration, Table 4
[3] = test system: Escherichia coli ATCC 25922; experiment: as above; conditions: minimum bactericidal concentration, Table 4
[4] = test system: Pseudomonas aeruginosa ATCC 27853; experiment: as above; conditions: minimum bactericidal concentration, Table 4

SMILES | MFC Candida A.10231 [1] [µg/mL] | MBC S. aur A.25923 [2] [µg/mL] | MBC E. coli A.25922 [3] [µg/mL] | MBC P. aerug A.27853 [4] [µg/mL]
CC(C)C[C@H](NC(=O)[C@H](C)NC(=O)[C@H](CC(C)C)NC(=O)[C@H](C)NC(=O)[C@H](CC(C)C)NC(=O)[C@H](CCCCN)NC(=O)[C@H](C)NC(=O)[C@H](CC(C)C)NC(=O)[C@H](CCCCN)NC(=O)[C@H](CCCCN)NC(=O)[C@H](CC(C)C)NC(=O)[C@H](CCCCN)NC(=O)[C@H](CCCCN)NC(=O)[C@H](C)NC(=O)[C@H](CC(C)C)NC(=O)[C@H](CCCCN)NC(=O)[C@H](CCCCN)NC(=O)[C@H](C)NC(=O)[C@@H](N)Cc1ccccc1)C(=O)O [27C] | >40 | >40 | 10 (≈ 4.77 µM) | 4 (≈ 1.91 µM)
CC[C@H](C)[C@H](NC(=O)CNC(=O)[C@H](CC(N)=O)NC(=O)[C@H](CCCNC(=N)N)NC(=O)[C@@H](NC(=O)[C@H](CC(N)=O)NC(=O)[C@H](CCCNC(=N)N)NC(=O)CNC(=O)[C@@H](NC(=O)[C@H](CCCCN)NC(=O)[C@H](CCC(=O)O)NC(=O)[C@@H](NC(=O)[C@H](CCCCN)NC(=O)[C@H](CCCCN)NC(=O)[C@H](Cc1ccccc1)NC(=O)[C@@H](NC(=O)[C@H](CCCCN)NC(=O)[C@H](Cc1c[nH]c2ccccc12)NC(=O)[C@H](CCCCN)NC(=O)[C@@H]1CCCN1C(=O)[C@@H](N)CCSC)C(C)C)[C@@H](C)CC)C(C)C)[C@@H](C)CC)C(=O)N[C@H](C(=O)N[C@@H](CCCCN)C(=O)N[C@@H](C)C(=O)NCC(=O)N1CCC[C@H]1C(=O)N[C@@H](C)C(=O)N[C@H](C(=O)N[C@@H](C)C(=O)N[C@H](C(=O)N[C@@H](CC(C)C)C(=O)NCC(=O)N[C@@H](CCC(=O)O)C(=O)N[C@@H](C)C(=O)N[C@@H](CCCCN)C(=O)N[C@@H](C)C(=O)N[C@@H](CC(C)C)C(=O)NCC(=O)O)C(C)C)[C@@H](C)CC)C(C)C [compound 5] | – | 40 (≈ 9.78 µM) | 50 (≈ 12.2 µM) | >60
CC(C)C[C@H](NC(=O)[C@H](C)NC(=O)[C@H](CC(C)C)NC(=O)[C@H](C)NC(=O)[C@H](CC(C)C)NC(=O)[C@H](CCCCN)NC(=O)[C@H](C)NC(=O)[C@H](CC(C)C)NC(=O)[C@H](CCCCN)NC(=O)[C@H](CCCCN)NC(=O)[C@H](C)NC(=O)[C@H](CC(C)C)NC(=O)[C@H](CCCCN)NC(=O)[C@H](CCCCN)NC(=O)[C@H](CC(C)C)NC(=O)[C@H](CCCCN)NC(=O)[C@H](CCCCN)NC(=O)[C@H](C)NC(=O)[C@H](CC(C)C)NC(=O)[C@H](CCCCN)NC(=O)[C@H](CCCCN)NC(=O)[C@H](C)NC(=O)[C@@H](N)Cc1ccccc1)C(N)=O [compound 11] | >50 | 25 (≈ 9.86 µM) | 40 (≈ 15.8 µM) | 25 (≈ 9.86 µM)
CC[C@H](C)[C@H](NC(=O)CNC(=O)[C@H](CC(N)=O)NC(=O)[C@H](CCCNC(=N)N)NC(=O)[C@@H](NC(=O)[C@H](CC(N)=O)NC(=O)[C@H](CCCNC(=N)N)NC(=O)CNC(=O)[C@@H](NC(=O)[C@H](CCCCN)NC(=O)[C@H](CCC(=O)O)NC(=O)[C@@H](NC(=O)[C@H](CCCCN)NC(=O)[C@H](CCCCN)NC(=O)[C@H](Cc1ccccc1)NC(=O)[C@@H](NC(=O)[C@H](CCCCN)NC(=O)[C@H](Cc1c[nH]c2ccccc12)NC(=O)[C@H](CCCCN)NC(=O)[C@@H]1CCCN1C(=O)[C@@H](N)CCSC)C(C)C)[C@@H](C)CC)C(C)C)[C@@H](C)CC)C(=O)N[C@H](C(=O)N[C@@H](CCCCN)C(=O)N[C@@H](C)C(=O)NCC(=O)N1CCC[C@H]1C(=O)N[C@@H](C)C(=O)N[C@H](C(=O)N[C@@H](C)C(=O)N[C@H](C(=O)N[C@@H](CC(C)C)C(=O)NCC(=O)N[C@@H](CCC(=O)O)C(=O)N[C@@H](C)C(=O)N[C@@H](CCCCN)C(=O)N[C@@H](C)C(=O)N[C@@H](CC(C)C)C(=O)NCC(N)=O)C(C)C)[C@@H](C)CC)C(C)C [compound 12] | – | 75 (≈ 18.3 µM) | 50 (≈ 12.2 µM) | >60
CC(C)C[C@H](NC(=O)[C@H](C)NC(=O)[C@H](CC(C)C)NC(=O)[C@H](C)NC(=O)[C@H](CCCCN)NC(=O)[C@H](CCCCN)NC(=O)[C@H](C)NC(=O)[C@H](CC(C)C)NC(=O)[C@H](CCCCN)NC(=O)[C@H](C)NC(=O)[C@H](CC(C)C)NC(=O)[C@H](CCCCN)NC(=O)[C@H](CCCCN)NC(=O)[C@H](C)NC(=O)[C@@H](N)Cc1ccccc1)C(N)=O [compound 39] | – | >40 | >40 | >40
CC(C)C[C@H](NC(=O)[C@H](C)NC(=O)[C@H](CCCCN)NC(=O)[C@H](CCCCN)NC(=O)[C@H](C)NC(=O)[C@H](CCCCN)NC(=O)[C@H](CCCCN)NC(=O)[C@H](CC(C)C)NC(=O)[C@H](C)NC(=O)[C@H](CCCCN)NC(=O)[C@H](CCCCN)NC(=O)[C@H](C)NC(=O)[C@H](CC(C)C)NC(=O)[C@H](C)NC(=O)[C@@H](N)Cc1ccccc1)C(N)=O [compound 40] | – | >40 | 30 (≈ 18.4 µM) | 40 (≈ 24.6 µM)
CC(C)C[C@H](NC(=O)[C@H](C)NC(=O)[C@H](CC(C)C)NC(=O)[C@H](CCCCN)NC(=O)[C@H](C)NC(=O)[C@H](CC(C)C)NC(=O)[C@H](CCCCN)NC(=O)[C@H](CCCCN)NC(=O)[C@H](CC(C)C)NC(=O)[C@H](CCCCN)NC(=O)[C@H](CCCCN)NC(=O)[C@H](C)NC(=O)[C@H](CC(C)C)NC(=O)[C@H](CCCCN)NC(=O)[C@H](CCCCN)NC(=O)[C@H](C)NC(=O)[C@@H](N)Cc1ccccc1)C(=O)N[C@@H](C)C(=O)N[C@@H](CCCCN)C(N)=O [compound 41] | – | 40 (≈ 19 µM) | 40 (≈ 19 µM) | 40 (≈ 19 µM)
CC(C)C[C@H](NC(=O)[C@H](C)NC(=O)[C@H](CC(C)C)NC(=O)[C@H](CCCCN)NC(=O)[C@H](C)NC(=O)[C@H](CC(C)C)NC(=O)[C@H](CCCCN)NC(=O)[C@H](CCCCN)NC(=O)[C@H](C)NC(=O)[C@H](CC(C)C)NC(=O)[C@H](CCCCN)NC(=O)[C@H](CCCCN)NC(=O)[C@H](C)NC(=O)[C@@H](N)Cc1ccccc1)C(N)=O [compound 45] | >50 | 80 (≈ 51.9 µM) | 30 (≈ 19.5 µM) | 40 (≈ 25.9 µM)
CC(C)C[C@H](NC(=O)[C@H](CCCCN)NC(=O)[C@H](CCCCN)NC(=O)[C@H](C)NC(=O)[C@H](CC(C)C)NC(=O)[C@H](CCCCN)NC(=O)[C@H](C)NC(=O)[C@H](CC(C)C)NC(=O)[C@H](CC(C)C)NC(=O)[C@H](CCCCN)NC(=O)[C@H](C)NC(=O)[C@@H](N)Cc1ccccc1)C(N)=O [compound 49] | 30 (≈ 22.3 µM) | 50 (≈ 37.2 µM) | 40 (≈ 29.8 µM) | 30 (≈ 22.3 µM)
CC[C@H](C)[C@H](NC(=O)[C@H](CCCCN)NC(=O)[C@H](CCCCN)NC(=O)[C@H](Cc1ccccc1)NC(=O)[C@H](CC(C)C)NC(=O)[C@H](CCCCN)NC(=O)[C@H](Cc1c[nH]c2ccccc12)NC(=O)[C@@H](N)CCCCN)C(=O)NCC(=O)N[C@@H](C)C(=O)N[C@H](C(=O)N[C@@H](CC(C)C)C(=O)N[C@@H](CCCCN)C(=O)N[C@H](C(=O)N[C@@H](CC(C)C)C(N)=O)C(C)C)C(C)C [compound 53] | 30 (≈ 16.9 µM) | 10 (≈ 5.65 µM) | 15 (≈ 8.47 µM) | 15 (≈ 8.47 µM)
CC[C@H](C)[C@H](NC(=O)CNC(=O)[C@H](CC(C)C)NC(=O)[C@H](CCCCN)NC(=O)[C@H](C)NC(=O)[C@H](CC(C)C)NC(=O)[C@H](C)NC(=O)[C@@H](NC(=O)[C@H](CCCCN)NC(=O)[C@H](C)NC(=O)[C@@H](NC(=O)[C@@H](N)CCCCN)[C@@H](C)CC)C(C)C)C(=O)NCC(=O)N[C@@H](C)C(=O)N[C@H](C(=O)N[C@@H](CC(C)C)C(=O)N[C@@H](CCCCN)C(=O)N[C@H](C(=O)N[C@@H](CC(C)C)C(=O)N[C@H](C(=O)N[C@H](C(=O)NCC(=O)N[C@@H](CC(C)C)C(N)=O)[C@@H](C)O)[C@@H](C)O)C(C)C)C(C)C [compound 105] | >50 | – | 25 (≈ 11 µM) | >50
CC(C)C[C@H](NC(=O)[C@H](CCCCN)NC(=O)[C@H](CCCCN)NC(=O)[C@H](C)NC(=O)[C@H](CC(C)C)NC(=O)[C@H](CCCCN)NC(=O)[C@H](C)NC(=O)[C@H](CC(C)C)NC(=O)[C@H](CCCCN)NC(=O)[C@H](CCCCN)NC(=O)[C@H](C)NC(=O)[C@@H](N)Cc1ccccc1)C(N)=O [compound 106] | >50 | – | 50 (≈ 36.8 µM) | >50
CC[C@H](C)[C@H](NC(=O)[C@H](CC(N)=O)NC(=O)[C@H](CCCNC(=N)N)NC(=O)CNC(=O)[C@H](CCSC)NC(=O)[C@H](CCCCN)NC(=O)[C@H](CCC(=O)O)NC(=O)[C@@H](NC(=O)[C@H](CCCCN)NC(=O)[C@H](CC(C)C)NC(=O)[C@H](Cc1ccccc1)NC(=O)[C@@H](NC(=O)[C@H](CCCCN)NC(=O)[C@H](CCC(=O)O)NC(=O)[C@H](CCCCN)NC(=O)[C@@H]1CCCN1C(=O)[C@@H](N)CCSC)C(C)C)[C@@H](C)CC)C(=O)N[C@@H](CCCNC(=N)N)C(=O)N[C@@H](CC(N)=O)C(N)=O [compound 107] | >50 | >50 | – | >50
CC(C)C[C@H](NC(=O)[C@H](C)NC(=O)[C@H](CCCCN)NC(=O)[C@H](C)NC(=O)[C@H](CC(C)C)NC(=O)[C@H](CCCCN)NC(=O)[C@H](CCCCN)NC(=O)[C@H](C)NC(=O)[C@H](CC(C)C)NC(=O)[C@H](CCCCN)NC(=O)[C@H](C)NC(=O)[C@H](CC(C)C)NC(=O)[C@H](CCCCN)NC(=O)[C@H](CCCCN)NC(=O)[C@H](C)NC(=O)[C@@H](N)Cc1ccccc1)C(N)=O [compound 109] | >50 | 80 (≈ 45.9 µM) | – | –
